Assay results as given in patent US20090214654A1, “TREATMENT OF ANEURYSM WITH APPLICATION OF CONNECTIVE TISSUE STABILIZATION AGENT IN COMBINATION WITH A DELIVERY VEHICLE” (priority 2008, published 2009).
Where two headings read alike, the source gives them in different places.

Experiments:
porcine carotid arteries = experiment: In vitro elastase digestion of treated carotid arteries; conditions: treated 20 minutes; 0.6% (w/v) Glut, 0.15% (w/v) PGG, alone or as cocktail; elastase 24 hrs, 37°C
Description: Tissue resistance to elastase degradation after treatment with various reagents is studied. Specifically, porcine carotid arteries were treated with saline (control, for 20 minutes), Glutaraldehyde (Glut) (for 20 minutes), PGG (for 20 minutes), or a combination of the two (Glut+PGG for 20 minutes, or Glut for 10 minutes followed by a separate incubation with PGG for 10 minutes). Concentrations of the reagents used were 0.6% (w/v) for Glut, 0.15% (w/v) for PGG and 9 g/L for physiological saline.
The treated tissue was then exposed to an in vitro elastase digestion assay to subject the treated tissue to digestion for 24 hrs. All experiments were conducted at 37° C. Because the values shown are percentage of digestion, the lower the value, the better the reagent used preformed in resisting elastase degradation. […] It should be noted that the digestion model used in this experiment is a very accelerated and aggressive digestion model.

porcine aortic wall = experiment: Collagenase digestion of treated aortic wall; conditions: type I collagenase 150 U/mL, 37°C, 24 hours
Description: Tissue resistance to collagenase degradation after treatment with various reagents is discussed. Specifically, samples of porcine aortic wall were either left untreated (fresh) or treated with Glut alone or Glut followed by tannic acid (TA). Glut treatment was performed with 0.6% (w/v) Glut for 1 day, and then 0.2% (w/v) Glut for 7 days at room temperature; Glut/TA treatment was performed with 0.6% (w/v) Glut for 1 day, and then 0.2% (w/v) Glut for 7 days at room temperature followed by 0.15% (w/v) TA for 4 days at 37° C. The treated samples were rinsed 3 times (1 hour each) in 100 mL water, and lyophilized to record dry weight. Samples with the amount of 15 to 25 mg dry weight were immersed in 1.2 mL of type I collagenase (150 U/mL) dissolved in 50 mM Tris buffer, 10 mM CaCl2, pH 7.4, and incubated at 37° C. with orbital shaking at 650 rpm for 24 hours. Following this exposure to collagenase, samples were centrifuged (10000 rpm, 10 minutes, 4° C.), individually rinsed three times in 1 mL water, lyophilized to obtain dry weight after collagenase, and the percent of digested tissue was calculated.

[1] = test system: abdominal aortic aneurysms in rats; assay type: in vivo, rat; conditions: for external aortic diameter: PGG group
Description: Pelivascular application of calcium chloride (CaCl2) to the infrarenal abdominal aorta of rodents is an accepted rat aneurysm model. It involves exposure of the abdominal aorta through a midline incision, using gauze to apply CaCl2 solution directly onto the aorta for 15 minutes, followed by surgical closure. Using this aneurysm model, we evaluated the effect of a single PGG application on development of abdominal aortic aneurysms in rats. For this study, we exposed the abdominal aorta in adult rats (n=12), measured the aorta diameter using digital photography and applied a 0.03% PGG solution in saline for 15 minutes using soaked gauze. After rinsing in saline, we induced aortic injury with the 15-minute application of 0.5 mol/L CaCl2 solution. Control rats (n=12) were treated with saline for 15 minutes, rinsed and then treated with 0.5 mol/L CaCl2 solution for 15 minutes. After 28 days, we re-exposed the abdominal aorta under general anesthesia, measured the external diameter, then euthanized the rats and collected the aorta for analysis. […] Along with aortic dilatation, perivascular application of CaCl2 induced major changes in vascular elastin content and integrity as shown by analysis of desmosine, an amino acid which is specific to elastin, as well as histology, all shown in FIG. 12.

[2] = test system: aneurysmal aortas of rats; experiment: CaCl2 abdominal aortic aneurysm progression model, PGG applied to aneurysmal aorta at day 28; assay type: in vivo, rat; conditions: PGG group, 11 of 11
Description: Using the same perivascular CaCl2 aortic injury model described earlier, the ability of PGG to halt the progression of growing aneurysms was evaluated. By applying PGG to healthy abdominal aorta immediately before the CaCl2-based aneurysm induction, the previously mentioned in vivo experiment essentially evaluated the effect of PGG on aneurysm formation. However, in order to create a more clinically relevant scenario, PGG was also applied to abdominal aortas of rats which were aneurysmal to investigate PGG's ability to hinder or halt aneurysm progression. In order to do this, rat aortas were treated with calcium chloride, the animals were closed, and AAA was allowed to develop for 28 days. At this time point, the aneurysmal aortas were exposed by a second surgery, and PGG was applied perivascularly using gauze. As a control, saline was applied by the same means to the remaining aneurysmal aortas. AAA progression was followed for another 28 days in both groups. A progressive diameter increase, reaching a mean 47.1±11% increase at 56 days, was measured in the control group (n=11) and the results were illustrated in FIG. 13.

[3] = test system: pure elastin obtained from porcine aorta; experiment: Elastase digestion of TA-treated pure aortic elastin (mass loss, histology); assay type: biochemical
Description: To investigate the potential of tannins as elastin stabilizing reagents, pure elastin obtained from porcine aorta was treated with tannic acid (TA) and the resistance of the treated porcine aorta to elastase was tested. Porcine aorta was chosen because large quantities of fresh tissue were easily obtainable. […] Purified elastin from porcine aorta was obtained using sodium hydroxide treatment followed by collagenase digestion. The smooth muscle cells, collagen and ground matrix are absent from purified aortic elastin. […] Elastase completely digested pure elastin strips, while addition of a 0.3% TA pretreatment step increased stability towards enzymatic digestion by almost 50%, as evaluated by mass loss shown in the graph at the left of FIG. 7 (p<0.05, n=6). Gravimetric data were further confirmed by histology and shown in FIG. 7A-D. Since histological analysis of elastase-digested elastin control was not possible at 48 hours due to complete (˜100%) degradation, we exposed pure elastin to elastase for only 1.5 hours, an interval which yields about 50% digestion and mass loss.

[4] = test system: pure elastin strips obtained from porcine aorta; experiment: Tannic acid binding to pure aortic elastin (Folin-Denis method); conditions: incubation up to 24 hours
Description: In order to determine kinetics of tannin binding to elastin, pure elastin strips obtained from porcine aorta were incubated with tannic acid (TA) for up to 24 hours. The concentration of TA in solution was assayed with the Folin-Denis method. […] All data points between 0-6 hrs are statistically different with p<0.05. The bottom diagram of FIG. 6 is a representative schematic diagram of interactions between TA and elastin. The hydrophobic domains (2, black segments) are areas in the elastin molecule that are susceptible to elastase cleavage. TA and PGG molecules (4, round structures), with an affinity for these hydrophobic areas, likely bind to these regions within elastin molecules, and establish multiple hydrogen bonds (5, dashed lines) between their hydroxyl moieties and regions of neighboring elastin molecules, resulting in improved elastin stabilization. Desmosine crosslinks (3, X) within the hydrophilic regions (1) of elastin molecules.

fresh aorta = experiment: Resistance of treated fresh aorta to elastase digestion; conditions: 0.3% TA or 0.15% PGG (equimolar); accelerated digestion
Description: Resistance to elastase digestion was tested using fresh, untreated aorta and aorta treated with 0.3% TA or 0.15% PGG (equimolar concentrations). […] The differences between digestive values in TA and PGG samples were not significant (p>0.05). This is an accelerated digestion study, where high concentrations of enzyme were used. Such high enzyme activities are not expected to occur in vivo.

O=CCCCC=O [Glut, Glutaraldehyde]
resistance of tissue to elastase degradation (percentage digestion) vs saline (porcine carotid arteries): slightly improved
percentage of sample digested by collagenase (mass loss) (porcine aortic wall): over 20%

O=C(OC[C@H]1O[C@@H](OC(=O)c2cc(O)c(O)c(O)c2)[C@H](OC(=O)c2cc(O)c(O)c(O)c2)[C@@H](OC(=O)c2cc(O)c(O)c(O)c2)[C@@H]1OC(=O)c1cc(O)c(O)c(O)c1)c1cc(O)c(O)c(O)c1 [PGG, penta-galloylglucose]
increase in aortic diameter after 28 days ([1]; 0.03% PGG in saline 15 minutes by soaked gauze before 0.5 mol/L CaCl2, day 28 vs day 0): 8±7%
loss of desmosine (elastin content) vs non-surgery control aorta ([1]; 28 days after injury): less than 15%
external aortic diameter ([1]; 28 days): 1.676±0.097 mm
external aortic diameter ([1]; day 0): 1.564±0.064 mm
time for which in vivo binding of PGG to aortic tissue is relatively stable ([1]; rat, in vivo): ≥ 28 days
PGG content of explanted aorta ([1]; rat, in vivo, 0 days): 1.8±0.6 μg PGG/mg dry tissue
PGG content of explanted aorta ([1]; rat, in vivo, 28 days): 1.2±0.4 μg PGG/mg dry tissue
aortas that maintained the same diameter or decreased at 56 days compared with 28 days [2]: 100%

O=C(OC[C@H]1O[C@@H](OC(=O)c2cc(O)c(O)c(OC(=O)c3cc(O)c(O)c(O)c3)c2)[C@H](OC(=O)c2cc(O)c(O)c(OC(=O)c3cc(O)c(O)c(O)c3)c2)[C@@H](OC(=O)c2cc(O)c(O)c(OC(=O)c3cc(O)c(O)c(O)c3)c2)[C@@H]1OC(=O)c1cc(O)c(O)c(OC(=O)c2cc(O)c(O)c(O)c2)c1)c1cc(O)c(O)c(OC(=O)c2cc(O)c(O)c(O)c2)c1 [TA, tannic acid]
increase in stability towards enzymatic digestion, evaluated by mass loss ([3]; 0.3% TA pretreatment, elastase, n=6): about 50%
histology of aortic elastin structure after elastase treatment ([3]; TA-stabilized elastin, elastase for up to 48 hours): remarkably preserved
TA binding kinetics normalized to dry weight of pure elastin strips [4]: rapid uptake
resistance of aorta to elastase (digestion values vs untreated fresh aorta) (fresh aorta): dramatically increased resistance
